# Reference: US12678515B2, “Lipids and lipid nanoparticle formulations for delivery of nucleic acids” (Acuitas Therapeutics, Inc., priority 2015, dated 2026)
# System: luciferase expression in the liver
# Assay: In vivo luciferase mRNA expression rodent model (lipid nanoparticle formulations of cationic lipids)
# Parameters: species or system mice
# Settings: luciferase expression in liver 4 hours after tail vein injection; LNP 50% cationic lipid/10% DSPC/38.5% cholesterol/1.5% PEG-DMA; MC3 activity=1
# Description: Cationic lipid (MC3), DSPC, cholesterol and PEG-lipid were solubilized in ethanol at a molar ratio of 50:10:38.5:1.5. Lipid nanoparticles (LNP) were prepared at a total lipid to mRNA weight ratio of approximately 10:1 to 30:1. Briefly, the mRNA was diluted to 0.2 mg/mL in 10 to 50 mM citrate buffer, pH 4. Syringe pumps were used to mix the ethanolic lipid solution with the mRNA aqueous solution at a ratio of about 1:5 to 1:3 (vol/vol) with total flow rates above 15 mL/min. The ethanol was then removed and the external buffer replaced with PBS by dialysis. Finally, the lipid nanoparticles were filtered through a 0.2 μm pore sterile filter. Lipid nanoparticle particle size was approximately 55-95 nm diameter, and in some instances approximately 70-90 nm diameter as determined by quasi-elastic light scattering using a Malvern Zetasizer Nano ZS (Malvern, UK) or by using a Nicomp 370 submicron particle sizer (Santa Barbara, CA).
# Studies were performed in 6-8 week old female C57BL/6 mice (Charles River) 8-10 week old CD-1 (Harlan) mice (Charles River) according to guidelines established by an institutional animal care committee (ACC) and the Canadian Council on Animal Care (CCAC). Varying doses of mRNA-lipid nanoparticle were systemically administered by tail vein injection and animals euthanized at specific time points (1, 2, 4, 8 and 24 hrs) post-administration. Liver and spleen were collected in pre-weighed tubes, weights determined, immediately snap frozen in liquid nitrogen and stored at −80° C. until processing for analysis.
# For liver, approximately 50 mg was dissected for analyses in a 2 mL FastPrep tubes (MP Biomedicals, Solon OH). ¼″ ceramic sphere (MP Biomedicals) was added to each tube and 500 μL of Glo Lysis Buffer—GLB (Promega, Madison WI) equilibrated to room temperature was added to liver tissue. Liver tissues were homogenized with the FastPrep24 instrument (MP Biomedicals) at 2×6.0 m/s for 15 seconds. Homogenate was incubated at room temperature for 5 minutes prior to a 1:4 dilution in GLB and assessed using SteadyGlo Luciferase assay system (Promega). Specifically, 50 μL of diluted tissue homogenate was reacted with 50 μL of SteadyGlo substrate, shaken for 10 seconds followed by 5 minute incubation and then quantitated using a CentroXS^3 LB 960 luminometer (Berthold Technologies, Germany). The amount of protein assayed was determined by using the BCA protein assay kit (Pierce, Rockford IL). Relative luminescence units (RLU) were then normalized to total μg protein assayed. To convert RLU to ng luciferase a standard curve was generated with QuantiLum Recombinant Luciferase (Promega). Based on the data provided in FIG. 1, the four-hour time point was chosen for efficacy evaluation of the lipid formulations (see Example 3). […]
row,Structure (SMILES),Activity Relative to MC3
1,"CCCCCCCCC(CCCCCC)C(=O)OCCCCCCCCCC(CCCCCCCCCOC(=O)C(CCCCCC)CCCCCCCC)OC(=O)CCCN(C)C (stereo not shown) [Compound 1, 10-{[4′-(dimethylamino)butanoyl]oxy}-19-[(2-hexyldecanoyl)oxy]nonadecyl 2-hexyldecanoate]",~2
2,"CCCCCCCCC(CCCCCC)COC(=O)CCCCCCCCCCCC(CCCCCCCCCCCC(=O)OCC(CCCCCC)CCCCCCCC)OC(=O)CCCN(C)C (stereo not shown) [Compound 2, 1,25-di-(2′-hexyldecyl)13-{[4-(dimethylamino)butanoyl]oxy}pentacosanedioate]",~0.75
3,"CCCCCCCCC(CCCCCC)C(=O)OCCCCCCCCCC(CCCCCCCCCOC(=O)C(CCCCCC)CCCCCCCC)OC(=O)CCCCN(C)C (stereo not shown) [Compound 3, 10-{[5-(dimethylamino)pentanoyl]oxy}-19-[(2-hexyldecanoyl)oxy]nonadecyl 2-hexyldecanoate]",~8
4,"CCCCC/C=C\C/C=C\CCCCCCCCC(CCCCCCCC/C=C\C/C=C\CCCCC)OC(=O)CCCN(C)C [MC3, reference compound]",1
